Test results published in PMC11784839, “Monoaminergic neurotransmitters are bimodal effectors of tau aggregation” (Science Advances, 2025).

Biological target: tau (Homo sapiens, UniProt P10636)
Assay: MCE Phenols Library screening, tau biosensor cell seeding assay (AvZ)
Format: cell-based
Conditions: for Z repl 1 / Z Repl 2: Z score; for Z repl 1 / raw data 1: replicate 1; for Z Repl 2 / raw data 2: replicate 2; for AvZ (average z score of seeding, SDs from the mean level of seeding): 10 μM phenol in cell cultures, AD brain homogenate preincubated 16 hours, two biological replicates, positive = catalyzes seeding, negative = inhibits
[1] = average Z score of the two replicates, MCE Phenols Library screen
[2] = average puncta of the two replicates
[3] = average Z score of the two replicates, tau seeding
[4] = average Z score of two replicates, Phenols Library screen

Chain of tau (P10636 623-695 limits assumed): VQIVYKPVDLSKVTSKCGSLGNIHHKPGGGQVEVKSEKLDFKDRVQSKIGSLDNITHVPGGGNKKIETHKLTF

| Compound | Z repl 1 | Z Repl 2 | av Z (average Z score of the two replicates, tau biosensor seeding, MCE Phenols Library screen) | av puncta (average of raw data 1 and 2) | raw data 1 (puncta) | raw data 2 (puncta) | av Z [1] | av puncta [2] | raw data 1 (raw puncta) | raw data 2 (raw puncta) | av Z [3] | av Z [4] | AvZ (average z score of seeding, SDs from the mean level of seeding) |
| --- | --- | --- | --- | --- | --- | --- | --- | --- | --- | --- | --- | --- | --- |
| COc1ccc(-c2cc(=O)c3c(O)cc(O[C@@H]4O[C@H](CO)[C@@H](O)[C@H](O)[C@H]4O[C@@H]4O[C@@H](C)[C@H](O)[C@@H](O)[C@H]4O)cc3o2)cc1O [Neodiosmin] | 1.202 | 0.25 | 0.726 | 28108.4 | 40782.2 | 15434.5 | – | – | – | – | – | – | – |
| COc1ccc(CCC(=O)c2c(O)cc(O[C@@H]3O[C@H](CO)[C@@H](O)[C@H](O)[C@H]3O[C@@H]3O[C@@H](C)[C@H](O)[C@@H](O)[C@H]3O)cc2O)cc1O [Neohesperidin dihydrochalcone] | -0.172 | -0.225 | – | – | – | – | -0.198 | 17327.7 | 24288.2 | 10367.2 | – | – | – |
| C[C@@H]1O[C@@H](O[C@H]2C(=O)c3c(O)cc(O)cc3O[C@H]2c2ccc(O)c(O)c2)[C@H](O)[C@H](O)[C@H]1O [Neoisoastilbin] | 0.661 | 0.303 | – | 25148.1 | 34290.2 | 16006 | – | – | – | – | 0.482 | – | – |
| O=C(/C=C/c1ccc(O)cc1)c1ccc(O[C@@H]2O[C@H](CO)[C@@H](O)[C@H](O)[C@H]2O)cc1O [Neoisoliquiritin] | -0.046 | 0.369 | – | 21249.5 | 25794.8 | 16704.1 | – | – | – | – | 0.161 | – | – |
| O=C1C[C@@H](c2ccc(O)cc2)Oc2cc(O[C@@H]3O[C@H](CO)[C@@H](O)[C@H](O)[C@H]3O)ccc21 [Neoliquiritin] | -0.356 | -0.555 | – | – | 22080.4 | 6836.97 | -0.455 | 14458.7 | – | – | – | – | – |
| COc1c(O)cc2oc(-c3ccc(O)c(O)c3)cc(=O)c2c1O [Nepetin] | -0.728 | -0.807 | – | 10877.8 | 17608.6 | 4146.93 | -0.768 | – | – | – | – | – | – |
| CC(=O)c1c(C)cc2cccc(O)c2c1O [Nepodin] | -0.364 | 0.129 | – | 18059 | 21978.8 | 14139.2 | – | – | – | – | – | -0.118 | – |
| COc1ccc(-c2cc(=O)c3c(O)c(OC)c(O)c(OC)c3o2)cc1 [Nevadensin] | -0.55 | -0.108 | – | – | – | – | -0.329 | 15677.7 | 19746.6 | 11608.9 | – | – | – |
| O=C1O[C@@H]2[C@@H](O)[C@H](O)[C@@H](CO)O[C@H]2c2c1cc(O)c(O)c2O [Norbergenin] | -0.528 | 0.442 | – | 18743.5 | 20005.8 | 17481.2 | – | – | – | – | – | -0.043 | – |
| COc1cc(CNC(=O)CCCCCC(C)C)ccc1O [Nordihydrocapsaicin] | -0.001 | -0.682 | – | – | – | – | – | 15905.5 | 26333.1 | 5477.91 | – | – | -0.342 |
| CC(Cc1ccc(O)c(O)c1)C(C)Cc1ccc(O)c(O)c1 (stereo not drawn) [Nordihydroguaiaretic acid] | -0.326 | 0.012 | – | 17666.9 | 22434.9 | 12898.9 | – | – | – | – | – | -0.157 | – |
| Cc1cc(=O)c2c(O)cc(O)cc2o1 [Noreugenin] | -0.363 | -0.457 | – | – | – | – | -0.41 | 14938 | 21994.8 | 7881.17 | – | – | – |
| CC(C)(O)CCc1c(O)cc(O)c2c(=O)c(O)c(-c3ccc(O)cc3)oc12 [Noricaritin] | 0.56 | 0.239 | – | 24195.2 | 33071.8 | 15318.5 | – | – | – | – | – | – | 0.399 |
| O=c1c2c(O)cc(O)cc2oc2c(O)ccc(O[C@@H]3O[C@H](CO)[C@@H](O)[C@H](O)[C@H]3O)c12 [Norswertianolin] | -0.236 | -0.647 | – | – | – | – | -0.441 | 14688.3 | 23518.4 | 5858.11 | – | – | – |
| O=c1cc(-c2ccccc2)oc2c(O)c(O)cc(O)c12 [Norwogonin] | -0.966 | -0.652 | – | 10276.7 | 14754.3 | 5799.06 | -0.809 | – | – | – | – | – | – |
| CC(C(=O)c1ccc(O)cc1O)c1ccc(O)cc1 (stereo not drawn) [O-Desmethylangolensin] | 0.135 | -0.221 | – | 19189.1 | 27969 | 10409.2 | – | – | – | – | – | -0.043 | – |
| COc1c(O)c(C)cc2c1C(=O)c1c(O)cccc1C2=O [Obtusifolin] | -0.23 | 0.069 | – | 18542 | 23582.4 | 13501.7 | – | – | – | – | – | -0.081 | – |
| C[C@@H]1CC(=O)c2c(ccc3c2C(=O)c2cccc(O)c2C3=O)C1 [Ochromycinone] | -0.991 | -0.213 | – | – | 14447.4 | 10495.4 | -0.602 | 12471.4 | – | – | – | – | – |
| COc1cc(CCC(O)CC(O)CCc2ccc(O)c(OC)c2)ccc1O (stereo not drawn) [Octahydrocurcumin] | -0.643 | 0.033 | – | – | – | – | -0.305 | 15871.9 | 18628.3 | 13115.6 | – | – | – |
| Cl.NCC(O)c1ccc(O)cc1 (stereo not drawn) [Octopamine (hydrochloride)] | -0.187 | 0.177 | – | 19376.3 | 24099.8 | 14652.9 | – | – | – | – | – | – | -0.005 |
| O=C(/C=C/c1ccc(O)c(O)c1)c1ccc(O)c(O)c1O [Okanin] | -1.882 | -1.187 | – | 1923.27 | 3755.83 | 90.703 | -1.534 | – | – | – | – | – | – |
| COc1ccc(CC(=O)c2ccc(O)cc2O)cc1 [Ononetin] | -0.169 | 0.358 | – | 20456.3 | 24324.1 | 16588.6 | – | – | – | – | – | 0.095 | – |
| Cc1cc(O)cc(O)c1 [Orcinol] | -1.362 | -0.316 | – | 9697.38 | 9999.31 | 9395.45 | – | – | – | – | – | – | -0.839 |
| O=c1cc(-c2ccc(O)c(O)c2)oc2c([C@@H]3O[C@H](CO)[C@@H](O)[C@H](O)[C@H]3O)c(O)cc(O)c12 [Orientin] | 0.558 | -0.368 | – | 20945 | 33050.1 | 8839.87 | – | – | – | – | – | 0.095 | – |
| O=c1cc(-c2ccccc2)oc2cc(O[C@@H]3O[C@H](CO[C@@H]4O[C@H](CO)[C@@H](O)[C@H](O)[C@H]4O)[C@@H](O)[C@H](O)[C@H]3O)c(O)c(O)c12 [Oroxin B] | -0.164 | -0.982 | – | – | 24381.7 | 2282.35 | -0.573 | 13332 | – | – | – | – | – |
| COc1c(O[C@@H]2O[C@H](C(=O)O)[C@@H](O)[C@H](O)[C@H]2O)cc2oc(-c3ccccc3)cc(=O)c2c1O [Oroxylin A-7-O-glucuronide] | -0.296 | 0.55 | – | 20714.9 | 22792.7 | 18637 | – | – | – | – | 0.127 | – | – |
